According to the NIST ThermoML archive (doi:10.1021/je020145g):
Numbers after ± are expanded uncertainties.

How the values were obtained:
[1] = DTA
[2] = Molar enthalpy of transition or fusion; conditions: DSC

| Normal melting temperature ([1]; Crystal 1) | Glass transition temperature ([1]; Glass) | Molar enthalpy of transition or fusion ([2]; Crystal 1) | Normal melting temperature ([1]; Crystal) | Molar enthalpy of transition or fusion ([2]; Crystal) | SMILES |
| --- | --- | --- | --- | --- | --- |
| 3.28 ± 1 °C | -76.59 ± 0.5 °C | 2.2 ± 0.0789 kcal/mol | – | – | CCCCn1cc[n+](C)c1.F[P-](F)(F)(F)(F)F [1-butyl-3-methylimidazolium hexafluorophosphate] |
| – | – | – | 59.7 ± 1 °C | 4.27 ± 0.134 kcal/mol | CCn1cc[n+](C)c1.F[P-](F)(F)(F)(F)F [1-ethyl-3-methylimidazolium hexafluorophosphate] |
